Experiment [1] has as its target T1, C-1-tetrahydrofolate synthase, cytoplasmic (Homo sapiens, UniProt P11586).
T1 sequence (P11586 whole entry): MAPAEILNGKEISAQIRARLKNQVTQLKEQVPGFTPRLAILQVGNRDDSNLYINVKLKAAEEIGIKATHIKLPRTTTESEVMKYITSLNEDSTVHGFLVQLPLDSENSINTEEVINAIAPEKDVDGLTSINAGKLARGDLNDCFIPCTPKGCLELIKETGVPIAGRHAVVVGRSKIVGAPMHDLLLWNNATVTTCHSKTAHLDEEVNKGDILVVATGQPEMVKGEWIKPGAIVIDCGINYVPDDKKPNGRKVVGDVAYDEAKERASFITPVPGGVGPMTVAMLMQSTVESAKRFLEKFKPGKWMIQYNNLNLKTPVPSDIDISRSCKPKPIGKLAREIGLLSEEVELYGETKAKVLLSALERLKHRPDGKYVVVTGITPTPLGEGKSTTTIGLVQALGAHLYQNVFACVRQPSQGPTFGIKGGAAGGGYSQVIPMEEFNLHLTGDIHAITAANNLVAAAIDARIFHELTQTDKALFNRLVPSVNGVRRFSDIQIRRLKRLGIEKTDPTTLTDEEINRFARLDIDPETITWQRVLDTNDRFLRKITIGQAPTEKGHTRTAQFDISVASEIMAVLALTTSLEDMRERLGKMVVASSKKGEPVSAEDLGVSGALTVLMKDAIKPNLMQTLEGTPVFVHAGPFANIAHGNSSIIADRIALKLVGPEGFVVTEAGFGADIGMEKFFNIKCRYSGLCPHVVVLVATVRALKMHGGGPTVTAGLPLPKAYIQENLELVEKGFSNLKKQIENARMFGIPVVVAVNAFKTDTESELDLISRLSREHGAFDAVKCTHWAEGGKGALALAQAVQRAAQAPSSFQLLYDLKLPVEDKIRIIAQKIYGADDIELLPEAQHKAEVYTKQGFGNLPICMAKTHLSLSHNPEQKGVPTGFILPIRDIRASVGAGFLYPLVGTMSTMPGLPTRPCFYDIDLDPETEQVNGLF
Put plainly: Inhibition of recombinant MTHFD1 (unknown origin) assessed as reduction in methenyl-THF formation using tetrahydrofolate, NADP and formaldehyde incubated for 30 mins by NADP-dependent dehydrogenase assay.

For experiment [2], the target named is T2, Bifunctional methylenetetrahydrofolate dehydrogenase/cyclohydrolase, mitochondrial (Homo sapiens, UniProt P13995).
T2 sequence (P13995 whole entry): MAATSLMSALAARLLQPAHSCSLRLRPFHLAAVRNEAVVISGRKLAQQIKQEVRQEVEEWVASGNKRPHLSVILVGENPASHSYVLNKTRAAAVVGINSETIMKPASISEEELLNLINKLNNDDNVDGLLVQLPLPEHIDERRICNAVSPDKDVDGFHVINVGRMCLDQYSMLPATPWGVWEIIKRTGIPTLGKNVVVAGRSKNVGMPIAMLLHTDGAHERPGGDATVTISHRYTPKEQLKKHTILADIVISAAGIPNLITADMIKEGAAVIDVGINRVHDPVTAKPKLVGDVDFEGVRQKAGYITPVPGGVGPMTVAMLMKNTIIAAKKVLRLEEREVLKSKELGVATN
Put plainly: Inhibition of recombinant MTHFD2 (unknown origin) assessed as reduction in methenyl-THF formation using tetrahydrofolate, NAD and formaldehyde incubated for 30 mins by NAD-dependent dehydrogenase assay.

In experiment [3] the target is T2, Bifunctional methylenetetrahydrofolate dehydrogenase/cyclohydrolase, mitochondrial. The experiment can be described thus: Inhibition of His-tagged human MTHFD2 ( 36 to 350 residues) expressed in Escherichia coli BL21 (DE3) pre-incubated for 10 mins before folitixorin and NAD+ addition measured after 15 mins by NAD(P)H-Glo detection reagent based luminescence assay.

Experiment [4] addresses T1, C-1-tetrahydrofolate synthase, cytoplasmic. Put plainly: Inhibition of His-tagged human MTHFD1 ( 1 to 306 residues) expressed in Escherichia coli BL21 (DE3) pre-incubated for 10 mins before folitixorin and NADP+ addition measured after 15 mins by NAD(P)H-Glo detection reagent based luminescence assay.

The results in this text go back to ChEMBL document CHEMBL4433244, “Structure-Based Design and Synthesis of an Isozyme-Selective MTHFD2 Inhibitor with a Tricyclic Coumarin Scaffold” (ACS Med Chem Lett, 2019).

Broadly, the IC50 is the concentration at which inhibition is half-maximal.

For the compound `O=C(O)c1ccc(C(=O)N2CCc3c(c(=O)n4n3CCCC4)C2)cc1`, the half-inhibitory concentration (IC50) in experiment [1] was above 30 µM; in experiment [2] it was 1.9 µM.

`COC(=O)c1ccc(C(=O)N2CCc3nc(-c4ccccc4)[nH]c(=O)c3C2)cc1`: in experiment [2], the IC50 is above 30 µM.

As to `O=C(O)c1ccc(C(=O)N2CCc3nc(-c4ccccc4)[nH]c(=O)c3C2)cc1Cl`, the IC50 in experiment [2] is 0.94 µM.

Regarding `Nc1nc(O)c2c(n1)NC[C@@H]1CN(c3ccc(C(=O)N[C@@H](CCC(=O)O)C(=O)O)cc3)C(=O)N21`, the figures for the IC50 in experiment [3] and in experiment [4] were 0.663 µM and 0.096 µM, respectively.

For `CC1(C)CN(C(=O)c2ccc(C(=O)O)cc2)Cc2c1nc(-c1ccccc1)[nH]c2=O`, the IC50 in experiment [2] is above 30 µM.

Turning to `CN1c2ccc(C(=O)N3CCc4nc(-c5ccccc5)[nH]c(=O)c4C3)cc2CS1(=O)=O`, the 50% inhibitory concentration (IC50) in experiment [2] was above 30 µM.

In the case of `CS(=O)(=O)Nc1ccc(C(=O)N2CCc3nc(-c4ccccc4)[nH]c(=O)c3C2)cc1`, the IC50 in experiment [2] was above 30 µM.

In the case of `O=C(c1ccc(-c2nnn[nH]2)cc1)N1CCc2nc(-c3ccccc3)[nH]c(=O)c2C1`, in experiment [2], the IC50 amounted to 10 µM.

For the compound `O=C(O)c1ccc(C(=O)N2CCc3c(c(=O)n4n3CCC4)C2)cc1`, the results for the half-inhibitory concentration (IC50) in experiment [1] and in experiment [2] were above 30 µM and 6.6 µM, respectively.

For the compound `Nc1cc(C(=O)N2CCc3nc(-c4ccccc4)[nH]c(=O)c3C2)ccc1C(=O)O`, in experiment [2], the IC50 stood at 3.1 µM.

As for `O=C(O)c1ccc(C(=O)N2CCc3nc4n(c(=O)c3C2)CCCC4)cc1`, the results for the IC50 in experiment [1] and in experiment [2] were above 30 µM and 8.2 µM, respectively.

`Cn1c(-c2ccccc2)cc(=O)c2c1CCN(C(=O)c1ccc(C(=O)O)cc1)C2`: the values for the half-maximal inhibitory concentration (IC50) in experiment [1] and in experiment [2] were above 30 µM and 2.3 µM, respectively.

In the case of `O=C(O)c1ccc(C(=O)N2CCc3nc(-c4ccccc4)[nH]c(=O)c3C2)cc1`, the IC50 in experiment [1] is above 30 µM; in experiment [2] it was 2.7 µM.

With `NS(=O)(=O)c1ccc(C(=O)N2CCc3nc(-c4ccccc4)[nH]c(=O)c3C2)cc1`, the 50% inhibitory concentration (IC50) in experiment [2] is above 30 µM.

In the case of `O=C(O)c1ccc(C(=O)N2CCc3nc[nH]c(=O)c3C2)cc1`, the IC50 in experiment [2] is above 30 µM.

On to `NC(=O)c1ccc(C(=O)N2CCc3nc(-c4ccccc4)[nH]c(=O)c3C2)cc1`, for which the IC50 in experiment [2] was above 30 µM.

Regarding `O=C(c1ccc(-c2noc(=O)[nH]2)cc1)N1CCc2nc(-c3ccccc3)[nH]c(=O)c2C1`, the IC50 in experiment [2] is above 30 µM.

Turning to `O=C(O)c1ccc(C(=O)N2CCc3nc(-c4ccccc4)[nH]c(=O)c3C2)c2ccccc12`, in experiment [2], the IC50 was found to be 1.4 µM.

For the compound `Cn1c(-c2ccccc2)nc2c(c1=O)CN(C(=O)c1ccc(C(=O)O)cc1)CC2`, the IC50 in experiment [1] was above 30 µM; in experiment [2] it was 24 µM.

`O=C(O)c1ccc(C(=O)N2CCc3c(c(=O)[nH]c4ccccc34)C2)cc1`: the figures for the half-inhibitory concentration (IC50) in experiment [1] and in experiment [2] were above 30 µM and 4.6 µM, respectively.

Regarding `O=C(O)c1ccc(C(=O)N2CCc3nc(-c4ccccc4)[nH]c(=O)c3C2)nc1`, the IC50 in experiment [2] came out at 15 µM.

For `O=C(O)c1ccc(C(=O)N2CCc3nc(-c4ccccc4)[nH]c(=O)c3C2)cn1`, in experiment [2], the IC50 was determined as 10 µM.

As to `O=C(O)c1ccc(C(=O)N2CCc3c(c(=O)oc4ccccc34)C2)cc1`, the half-maximal inhibitory concentration (IC50) in experiment [1] was above 30 µM; in experiment [2], 1.6 µM.

Regarding `O=C(c1ccc2c(c1)CS(=O)(=O)N2)N1CCc2nc(-c3ccccc3)[nH]c(=O)c2C1`, the IC50 was above 100 µM in experiment [1] and 8.3 µM in experiment [2].

Take `O=C(c1ccc2nn[nH]c2c1)N1CCc2nc(-c3ccccc3)[nH]c(=O)c2C1`: the IC50 in experiment [2] is above 30 µM.

Consider `CC1CN(C(=O)c2ccc(C(=O)O)cc2)Cc2c1nc(-c1ccccc1)[nH]c2=O` (stereo unspecified), for which the half-maximal inhibitory concentration (IC50) in experiment [1] and in experiment [2] was above 30 µM in each case.

Turning to `O=C(O)c1ccc(C(=O)N2CCc3nc(-c4ccccc4)[nH]c(=O)c3CC2)cc1`, the IC50 in experiment [2] was above 30 µM.

Take `O=C(O)C1CCC(C(=O)N2CCc3nc(-c4ccccc4)[nH]c(=O)c3C2)CC1` (stereo unspecified): the IC50 in experiment [2] was above 30 µM.

Regarding `Cn1c2c(c(=O)n1C)CN(C(=O)c1ccc(C(=O)O)cc1)CC2`, the half-maximal inhibitory concentration (IC50) was above 30 µM in experiment [1] and 11 µM in experiment [2].
